From patent US10761045B2, “Sensor, sensor system, method of manufacturing sensor, and method of measuring concentration of target substance” (PHC Holdings Corporation, priority 2010, dated 2020)
Where two headings read alike, the source gives them in different places.

Assays:
[1] = Storage stability of reagent solution (response current of sensors made with stored vs fresh reagent solution); type: physicochemical
From the text: A sensor having the configuration illustrated in FIG. 1 was manufactured. The detailed procedure will now be described. First, by sputtering palladium, 8 nm-thick conductive layer 3 was deposited on substrate 2 which was 30 mm in length, 7 mm in width and 0.2 mm in thickness and which contained polyethylene terephthalate as its main component. Thereafter, a 0.1 mm-width non-conductive track was formed by laser ablation, to form electrodes 31 to 33. Electrode 31 was designed to function as a working electrode, electrode 32 as a counter electrode, and electrode 33 as a sensing electrode.
Using a microsyringe, 1.2 μL of each reagent solution was applied to form reagent layer 4 in a shape of 2.2 mm diameter-circular. After formation of reagent layer 4, spacer 5 (0.145 mm thick) having a cut-out with a length of 3.4 mm a width of 1.2 mm and cover 6 were sequentially attached to the substrate having the electrodes formed thereon. In this way a sensor was manufactured that has a capillary having a volume of 0.6 μL. […]
Response current values of each sensor were measured using a series of glucose solutions of known concentrations.
By adding as an additive imidazole, histamine, histidine, 2-aminoimidazole, 4,5-bis(hydroxymethyl)imidazole, 1,2,4-triazole, 3-amino-1,2,4-triazole, 4-amino-1,2,4-triazole, 3,5-diamino-1,2,4-triazole, 2-methylimidazole, or 1,2-dimethylimidazole, reagent solutions were prepared that contain the same composition as reagent solution C except the type and concentration of the additive. The concentrations of the additives are as indicated in Tables below and the accompanying drawings.
Further, sensors were manufactured using the same reagent solutions stored at 25° C. and 5% humidity for 24 hours after preparation. […]

[2] = Stability test (exposure test) of sensor at 30° C., 80% humidity; details: for Sensor stability % change in response current value between before and after 24 hours exposure at 30° C. and 80% humidity: additive in reagent layer, additive conc. 1.0-5.0 mM; for change in the response current value after the exposure test: 24 hours at 30° C., 80% relative humidity
Method: Sensors were manufactured in the same manner as described in section [1-5] using the reagent solutions prepared above. The sensors manufactured were exposed to an environment of high temperature and humidity (30° C., 80% relative humidity) for 24 hours. Response current values of the pre- and post-exposed sensors were measured for a series of glucose solutions of known concentrations.
Sensors were manufactured using fresh reagent solutions having the same compositions as described above. The sensors were subjected to an exposure experiment where they were allowed to stand for 24 hours at 30° C. and 80% humidity. Response current values of non-exposed sensors (i.e., sensors stored under the ambient condition (25° C., 5% humidity) for 24 hours) and the exposed sensors were measured for a series of glucose solutions of known concentrations.

Row | Molecule | Reagent solution stability % change in response current value between before and after 24 hours storage at 25° C. [1] | Sensor stability % change in response current value between before and after 24 hours exposure at 30° C. and 80% humidity [2] | change in the response current value after the exposure test [2] | Reagent solution stability % change in response current value between before and after 24 hours storage at 25° C. ([1]; additive in reagent solution C composition (PQSA, FAD-GDH), additive conc. 1.0-5.0 mM)
1 | NCCCC[C@H](N)C(=O)O [Lysine, reference compound] | −20% | −31% |  | 
2 | Ethyleneamine [reference compound] |  | −77% |  | 
3 | Nc1nc[nH]n1 [3-Amino-1,2,4-triazole] | 0% | −4% | relatively small change in the response current value | 
4 | c1nc[nH]n1 [1,2,4-Triazole] | −12% | −14% | relatively small change in the response current value | 
5 | NCCCCN [Butanediamine, reference compound] |  | −51% |  | 
6 | Nn1cnnc1 [4-Amino-1,2,4-triazole] | −6% | −4% | relatively small change in the response current value | 
7 | N=C(N)NCCC[C@H](N)C(=O)O [Arginine, reference compound] | −25% | −12% |  | 
8 | Nc1n[nH]c(N)n1 [3,5-Diamino-1,2,4-triazole] |  | −2% | relatively small change in the response current value | −1%

Now from value to molecule, other results behind:

Row | Reagent solution stability % change in response current value between before and after 24 hours storage at 25° C. [1] | Sensor stability % change in response current value between before and after 24 hours exposure at 30° C. and 80% humidity [2] | Molecule | change in the response current value after the exposure test [2] | Reagent solution stability % change in response current value between before and after 24 hours storage at 25° C. ([1]; additive in reagent solution C composition (PQSA, FAD-GDH), additive conc. 1.0-5.0 mM)
9 | −2% | −3% | NCCc1c[nH]cn1 [Histamine] | relatively small change in the response current value | 
10 | −14% | −11% | OCc1nc[nH]c1CO [4,5-Bis(hydroxymethyl) imidazole, 4,5-bis(hydroxymethyl)imidazole] | relatively small change in the response current value | 
11 | −7% | −12% | N[C@@H](Cc1c[nH]cn1)C(=O)O [Histidine] | relatively small change in the response current value | 
12 | 1% | −44% | Cc1ncc[nH]1 [2-Methylimidazle, 2-methylimidazole] |  | 
13 | −3% | −45% | NCCN [Ethylenediamine, reference compound] |  | 
14 | −6% | −7% | Nc1ncc[nH]1 [2-Aminoimidazole] | relatively small change in the response current value | 
15 | 2% | −44% | Cc1nccn1C [1,2-Dimethylimidazole] |  | 
